System: CVD (CHD or stroke)
Assay: WOSCOPS: SNP by pravastatin treatment interaction, logistic regression (synergy index), CVD endpoint
Format: in vivo, human
Conditions: for OR (synergy index), WOSCOPS, Prava vs Placebo: CVD endpoint, Caseonly; for OR (SNP x pravastatin treatment interaction): WOSCOPS pravastatin vs placebo
Text: CARE was a secondary prevention trial and WOSCOPS was a primary prevention trial.
The CHD endpoint was defined in the analyses herein of CARE as a composite endpoint of fatal CHD, definite non-fatal MI, or revascularization, and was defined in the analyses herein of WOSCOPS as a composite endpoint of death from CHD, nonfatal MI, or revascularization. In both the CARE and WOSCOPS analyses herein, the CVD endpoint was defined as a composite endpoint of CHD or stroke. […] Revascularization, which can include percutaneous transluminal coronary angioplasty (PTCA), stent placement, and coronary artery bypass graft (CABG), are medical interventions that indicate the presence of CHD.
Cohort and case-only study designs were used to identify SNPs associated with response to statin treatment.
For each SNP, a logistic regression model having treatment status as the dependent variable and SNP as the independent predictor variable was performed, with terms for age, sex and race included in the model as covariates. The anti-log of the regression coefficient corresponding to the SNP is an estimate of the synergy index (SI) (Davis et al., “Imputing gene-treatment interactions when the genotype distribution is unknown using case-only and putative placebo analyses-a new method for the Genetics of Hypertension Associated Treatment (GenHAT) study”, Statistics in Medicine 23: (2004), pages 2413-2427). The SI is a ratio of odds ratios: for example in the CARE and WOSCOPS studies, the SI represents the factor by which the odds-ratio of statin treatment, compared with placebo, among major homozygous individuals is multiplied by in order to obtain the odds-ratio of treatment vs. placebo among heterozygous individuals; and multiplied by a second time to obtain the odds-ratio of treatment vs. placebo in minor homozygous individuals. […] In a randomized clinical trial, genotype and treatment are independent by design.

CC[C@H](C)C(=O)O[C@H]1C[C@H](O)C=C2C=C[C@H](C)[C@H](CC[C@@H](O)C[C@@H](O)CC(=O)O)[C@H]21 [Pravastatin, pravastatin]
OR (synergy index), WOSCOPS, Prava vs Placebo (SNP rs304601 (A1 A, A2 G), rec model): 3.93
OR (synergy index), WOSCOPS, Prava vs Placebo (SNP rs988146 (A1 G, A2 A), add model): 0.80
OR (SNP x pravastatin treatment interaction) (SNP rs1241967, allele A1=T, model REC, Imputed): 0.5915
OR (SNP x pravastatin treatment interaction) (SNP rs1247340, allele A1=C, model ADD, Imputed): 1.51
OR (SNP x pravastatin treatment interaction) (SNP rs1247340, allele A1=C, model DOM, Imputed): 1.767
OR (SNP x pravastatin treatment interaction) (SNP rs1247341, allele A1=C, model ADD, Imputed): 1.524
OR (SNP x pravastatin treatment interaction) (SNP rs1247341, allele A1=C, model DOM, Imputed): 1.795
OR (SNP x pravastatin treatment interaction) (SNP rs1247343, allele A1=C, model DOM, Imputed): 1.681
OR (SNP x pravastatin treatment interaction) (SNP rs1335721, allele A1=A, model REC, Imputed): 0.5999
OR (SNP x pravastatin treatment interaction) (SNP rs1336382, allele A1=T, model DOM, Imputed): 1.458
OR (SNP x pravastatin treatment interaction) (SNP rs1336383, allele A1=T, model DOM, Imputed): 1.458
OR (SNP x pravastatin treatment interaction) (SNP rs1336407, allele A1=T, model DOM, Imputed): 1.458
OR (SNP x pravastatin treatment interaction) (SNP rs1336409, allele A1=T, model DOM, Imputed): 1.458
OR (SNP x pravastatin treatment interaction) (SNP rs1336596, allele A1=A, model DOM, Imputed): 0.6728
OR (SNP x pravastatin treatment interaction) (SNP rs1355715, allele A1=T, model ADD, Imputed): 0.5755
OR (SNP x pravastatin treatment interaction) (SNP rs1363273, allele A1=C, model REC, Imputed): 0.5817
OR (SNP x pravastatin treatment interaction) (SNP rs1373601, allele A1=A, model DOM, Imputed): 0.5287
OR (SNP x pravastatin treatment interaction) (SNP rs1395748, allele A1=G, model DOM, Imputed): 0.6603
OR (SNP x pravastatin treatment interaction) (SNP rs1414865, allele A1=T, model DOM, Imputed): 1.433
OR (SNP x pravastatin treatment interaction) (SNP rs1414873, allele A1=A, model DOM, Imputed): 1.458
OR (SNP x pravastatin treatment interaction) (SNP rs1414876, allele A1=C, model DOM, Imputed): 1.458
OR (SNP x pravastatin treatment interaction) (SNP rs1424643, allele A1=G, model ADD, Imputed): 1.554
OR (SNP x pravastatin treatment interaction) (SNP rs1424643, allele A1=G, model DOM, Imputed): 1.592
OR (SNP x pravastatin treatment interaction) (SNP rs1424648, allele A1=T, model DOM, Imputed): 1.619
OR (synergy index), WOSCOPS, Prava vs Placebo (SNP rs1559557 (A1 G, A2 A), add model): 1.53
OR (synergy index), WOSCOPS, Prava vs Placebo (SNP rs1877527 (A1 G, A2 A), add model): 0.77
OR (synergy index), WOSCOPS, Prava vs Placebo (SNP rs2132241 (A1 A, A2 G), add model): 0.70
OR (synergy index), WOSCOPS, Prava vs Placebo (SNP rs2270588 (A1 G, A2 A), add model): 0.75
OR (synergy index), WOSCOPS, Prava vs Placebo (SNP rs9325191 (A1 A, A2 C), add model): 0.69
OR (synergy index), WOSCOPS, Prava vs Placebo (SNP rs9346951 (A1 A, A2 G), add model): 1.25
OR (synergy index), WOSCOPS, Prava vs Placebo (SNP rs10787944 (A1 G, A2 A), dom model): 1.45
OR (SNP x pravastatin treatment interaction) (SNP rs11959206, allele A1=A, model REC, Imputed): 0.5862
OR (SNP x pravastatin treatment interaction) (SNP rs12038613, allele A1=C, model REC, Imputed): 0.5999
OR (SNP x pravastatin treatment interaction) (SNP rs12151417, allele A1=T, model DOM, Imputed): 1.573
OR (SNP x pravastatin treatment interaction) (SNP rs12153185, allele A1=T, model DOM, Imputed): 0.6973
OR (SNP x pravastatin treatment interaction) (SNP rs12182651, allele A1=T, model DOM, Imputed): 2.24
OR (SNP x pravastatin treatment interaction) (SNP rs12235345, allele A1=C, model DOM, Imputed): 1.42
OR (SNP x pravastatin treatment interaction) (SNP rs12324786, allele A1=T, model REC, Imputed): 2.796
OR (SNP x pravastatin treatment interaction) (SNP rs12336958, allele A1=G, model DOM, Imputed): 1.46
OR (SNP x pravastatin treatment interaction) (SNP rs12407412, allele A1=C, model ADD, Imputed): 1.382
OR (SNP x pravastatin treatment interaction) (SNP rs12407412, allele A1=C, model DOM, Imputed): 1.401
OR (SNP x pravastatin treatment interaction) (SNP rs12418971, allele A1=C, model REC, Imputed): 1.699
OR (SNP x pravastatin treatment interaction) (SNP rs12420184, allele A1=G, model DOM, Imputed): 0.6518
OR (SNP x pravastatin treatment interaction) (SNP rs12433968, allele A1=T, model DOM, Imputed): 0.7213
OR (SNP x pravastatin treatment interaction) (SNP rs12445477, allele A1=A, model DOM, Imputed): 0.4063
OR (SNP x pravastatin treatment interaction) (SNP rs12447191, allele A1=T, model ADD, Genotyped): 0.6489
OR (SNP x pravastatin treatment interaction) (SNP rs12447191, allele A1=T, model DOM, Genotyped): 0.5081
OR (SNP x pravastatin treatment interaction) (SNP rs12465349, allele A1=A, model REC, Imputed): 1.587
OR (SNP x pravastatin treatment interaction) (SNP rs12509758, allele A1=C, model DOM, Imputed): 1.856
OR (SNP x pravastatin treatment interaction) (SNP rs12515472, allele A1=A, model DOM, Imputed): 1.531
OR (SNP x pravastatin treatment interaction) (SNP rs12548906, allele A1=G, model ADD, Imputed): 1.496
OR (SNP x pravastatin treatment interaction) (SNP rs12596240, allele A1=G, model DOM, Imputed): 0.6708
OR (SNP x pravastatin treatment interaction) (SNP rs12618781, allele A1=A, model DOM, Imputed): 0.5446
OR (SNP x pravastatin treatment interaction) (SNP rs12678600, allele A1=A, model DOM, Imputed): 0.6479
OR (SNP x pravastatin treatment interaction) (SNP rs12692229, allele A1=T, model ADD, Imputed): 1.315
OR (SNP x pravastatin treatment interaction) (SNP rs12713324, allele A1=T, model DOM, Imputed): 1.584
OR (SNP x pravastatin treatment interaction) (SNP rs12719415, allele A1=T, model DOM, Imputed): 0.6887
OR (SNP x pravastatin treatment interaction) (SNP rs12820589, allele A1=G, model ADD, Imputed): 1.758

— patent US10563263B2, “Genetic polymorphisms associated with statin response and cardiovascular diseases, methods of detection and uses thereof” (CELERA CORPORATION, priority 2010, dated 2020)
